pIC50: −log10 of the molar value.
Target: NS3 (Hepatitis C virus, UniProt A3EZJ3)
Assay: Inhibitory activity against Hepatitis C virus NS3 protease by ELISA
Parameters: species or system Hepacivirus hominis

Chain of NS3 (A3EZJ3 whole entry): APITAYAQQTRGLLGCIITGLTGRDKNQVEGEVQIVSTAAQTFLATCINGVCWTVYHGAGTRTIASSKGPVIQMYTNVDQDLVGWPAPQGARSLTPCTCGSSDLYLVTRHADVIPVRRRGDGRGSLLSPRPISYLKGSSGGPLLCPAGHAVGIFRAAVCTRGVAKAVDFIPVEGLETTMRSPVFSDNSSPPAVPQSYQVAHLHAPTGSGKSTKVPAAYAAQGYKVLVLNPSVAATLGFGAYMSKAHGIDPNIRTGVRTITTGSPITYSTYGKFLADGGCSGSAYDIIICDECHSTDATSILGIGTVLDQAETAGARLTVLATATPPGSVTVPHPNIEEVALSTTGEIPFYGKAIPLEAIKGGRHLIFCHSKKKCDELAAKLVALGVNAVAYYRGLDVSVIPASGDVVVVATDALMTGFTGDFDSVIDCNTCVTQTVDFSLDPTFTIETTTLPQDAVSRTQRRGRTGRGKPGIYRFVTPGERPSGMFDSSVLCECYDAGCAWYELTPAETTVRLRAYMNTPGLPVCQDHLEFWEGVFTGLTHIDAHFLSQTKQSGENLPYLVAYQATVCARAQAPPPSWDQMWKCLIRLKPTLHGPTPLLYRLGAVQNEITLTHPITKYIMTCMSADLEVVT

SMILES | pIC50
O=C(OC[C@H]1O[C@H](OC(=O)c2cc(O)c(O)c(O)c2)[C@H](OC(=O)c2cc(O)c(O)c(O)c2)[C@@H](OC(=O)c2cc(O)c(O)c(O)c2)[C@@H]1O)c1cc(O)c(O)c(O)c1 | 6.12
O=C(OC[C@H]1O[C@@H](OC(=O)c2cc(O)c(O)c(O)c2)[C@H](OC(=O)c2cc(O)c(O)c(O)c2)[C@@H](O)[C@@H]1O)c1cc(O)c(O)c(O)c1 | 5.72
O=C(OC[C@H]1O[C@@H](OC(=O)c2cc(O)c(O)c(O)c2)[C@H](OC(=O)c2cc(O)c(O)c(O)c2)[C@@H](OC(=O)c2cc(O)c(O)c(O)c2)[C@@H]1OC(=O)c1cc(O)c(O)c(O)c1)c1cc(O)c(O)c(O)c1 [PENTAGALLOYL GLUCOSE] | 5.80

Source: ChEMBL document CHEMBL1137108, “Antiviral compounds from traditional Chinese medicines Galla Chinese as inhibitors of HCV NS3 protease” (Bioorg Med Chem Lett, 2004)
